Source: article PMC8433833, “Heteroleptic Oxidovanadium(V) Complexes with Activity against Infective and Non-Infective Stages of Trypanosoma cruzi” (Molecules, 2021)
Where two headings read alike, the source gives them in different places.

Experiments:
[1] = tested on: VERO cells; parameters: method as in doi:10.1039/C9NJ02589H; settings: ref [42], read-out: IC50 VERO ± SD; cited from earlier work
[2] = tested on: T. cruzi trypomastigotes (CL Brener strain); assay: In vitro activity against cell-derived trypomastigotes of T. cruzi (alamar Blue); assay type: cell-based, Trypanosoma cruzi; settings: for IC50: Trypanosoma cruzi, 24 h, read-out: IC50 Trypomastigotes T. cruzi ± SD
[3] = tested on: T. cruzi epimastigotes (CL Brener strain); assay: In vitro activity against epimastigotes of T. cruzi (alamar Blue); assay type: cell-based, Trypanosoma cruzi; settings: for IC50: Trypanosoma cruzi, 24 h, read-out: IC50 Epimastigotes T. cruzi ± SD
[4] = tested on: calf thymus DNA (ctDNA); assay: Competitive binding to {DNA-EB} adduct by fluorescence; settings: ctDNA 1.5 μM, EB 0.75 μM, 10 mM Tris-HCl pH 7.4, DMSO ≤5% v/v
Protocol: Experiments for competitive binding to calf thymus DNA (ctDNA, SIGMA, Type I, No. D-1501, St. […] Millipore water was used for the preparation of solutions of the complexes for the studies and for buffer solution. Fluorescence measurements were performed as titration using a fixed concentration of ctDNA and EB while gradually increasing the concentration of the [V^VO(IN-2H)(L2-H)] complex, L2 and IN free ligands. ctDNA stock solutions were prepared by hydrating ctDNA in Tris-HCl buffer (1 mg mL^−1, ~2 mM nuc^−1). This solution was allowed to stand at 4 °C. The concentration of the stock solution was determined by UV spectrophotometry using the molar absorption coefficient ε (260 nm) = 6600 M^−1cm^−1nuc^−1 [76]. An EB 0.5 mM solution was prepared in Tris-HCl buffer. Due to the low solubility of the complexes in aqueous media, DMSO was used to prepare concentrated stock solutions, followed by appropriate dilution. […] Fluorescence spectra were recorded from 540 nm to 680 nm at an excitation wavelength of 510 nm on a Shimadzu RF 5301 spectrofluorimeter (Kyoto, Japan) and in a 10.0 × 10.0 mm^2 quartz cuvette. Samples with only compounds and ctDNA (without EB) were used as blanks and subtracted from the sample spectra. […] KSV were determined from the plot of F0/F versus [Q].

[5] = tested on: VERO cells; assay: Cytotoxicity on VERO cells (MTT assay); assay type: cell-based, African green monkeys; settings: Primates, 24 h, read-out: IC50 VERO ± SD
Protocol: VERO cells. VERO cells (ATCC CCL81, Manassas, VA, USA) were used as mammalian cell model for testing unspecific cytotoxicity. This cell lineage was isolated from kidney epithelial cells from African green monkeys and is widely used for phenotypic screening of drugs as it is regarded as a normal cell derived from epithelial tissue.
Cells were cultured in RPMI medium (Gibco, Grand Island, NY, USA) supplemented with 10% heat inactivated fetal bovine serum, penicillin (100 units/mL) and streptomycin (100 µg/mL) at 37 °C in a humidified 5% CO2 incubator. For maintenance, confluent cells were washed with PBS, incubated for 3 min with trypsin-EDTA (Gibco), diluted and re-plated.
The compounds were initially dissolved in DMSO (stock concentration). […]
For the cytotoxicity assay, 10,000 cells per well were seeded in a 96-well plate in RPMI medium and were incubated at 37 °C in a 5% CO2 atmosphere. […] Cell viability was assessed using MTT (3-(4, 5-dimethylthiazolyl-2)-2, 5-diphenyltetrazolium bromide) assay, where MTT is reduced by metabolically active cells to generate reducing equivalents such as NADH and NADPH, resulting in the formation of an intracellular purple formazan which can be solubilized by the addition of DMSO. […] Plates were kept for 15 min with agitation and absorbance was measured at 570 nm in a Thermo Scientific Varioskan® Flash Multimode instrument (Waltham, MA, USA). […]

[6] = tested on: Caenorhabditis elegans Bristol strain N2; assay: In vivo toxicity on C. elegans (motility, viability, development); settings: C. elegans L4, 2 µM, positive control
Protocol: The wild-type Caenorhabditis elegans (C. elegans) Bristol strain N2 and Escherichia coli (E. coli) OP50 strain were obtained from the Caenorhabditis Genomics Center (Minneapolis, MN, USA). Worms were maintained under standard conditions at 20 °C on Nematode Growth Media (NGM) agar plates seeded with E. coli OP50 as a source of food as previously described. The method used to assess toxicity is based on worm motility according to previously described. Briefly, the locomotor activity recording system, WMicrotracker^TM ONE (PhylumTech, Santa Fe, Argentina) detects infrared microbeam interruptions. Synchronized L4 C. elegans worms were removed from culture plates and washed three times with M9 buffer (3 g KH2PO4; 6 g Na2HPO4; 5 g NaCl; 1 mL 1 M MgSO4 per liter) by centrifugation at 1000 g. Worms in M9 1% DMSO were plated in 96-well flat microtiter plates (Deltalab, Barcelona, Spain). Approximately 70 worms per well were seeded in 60 µL M9 buffer containing 1% DMSO and their basal movement was measured for 30 min to normalize the movement activity for each well at the beginning of the assay. Then, compound [V^VO(IN-2H)(L2-H)] dissolved in M9 buffer 1% DMSO was added to a final concentration range of 6.5–100 µM in a final volume of 100 µL per well. […] The motility using WMicrotracker^TM ONE was measured for 18 h. […]

Molecule	IC50 [1] [µM]	IC50 ([2]; CL Brener strain, cell-derived) [µM]	IC50 ([3]; CL Brener strain) [µM]	also measured
Oc1cccc2cccnc12 [L0]	10.1 ± 3.9	–	–	IC50 [2]: 0.47 ± 0.07 µM; IC50 [3]: 9.42 ± 2.23 µM
CC1CS(=O)(=O)CCN1/N=C/c1ccc([N+](=O)[O-])o1 (centres unmarked) [Nifurtimox]	998 ± 90.6	20.1 ± 2.86	3.68 ± 0.71	–
Oc1c(Cl)cc(Cl)c2cccnc12 [L1, 5,7-dichloro-8-hydroxyquinolne]	66.5 ± 13.1	2.25 ± 0.95	7.17 ± 1.07	–
O=C(N/N=C/c1c(O)ccc2ccccc12)c1ccncc1 [IN]	–	> 20	> 20	log (KSV), Stern–Volmer constant for competitive binding to {DNA-EB} adduct [4]: 4.29; activity on trypomastigotes (in words) [2]: negligible activity; activity on epimastigotes (in words) [3]: negligible activity; IC50 [5]: 22.6 ± 3.7 µM
ivermectin	–	–	–	effect on worm motility [6]: reduced motility to zero
O=[N+]([O-])c1ccc(O)c2ncccc12 [L4]	12.5 ± 4.5	1.01 ± 0.73	2.58 ± 0.56	–
Oc1c(I)cc(I)c2cccnc12 [L3]	75.5 ± 16.3	1.1 ± 0.88	2.17 ± 0.35	–
Oc1c(I)cc(Cl)c2cccnc12 [L2, 5-chloro-7-iodo-8-hydroxyquinoline]	64.7 ± 9.1	0.4 ± 0.08	2.76 ± 0.52	log (KSV), Stern–Volmer constant for competitive binding to {DNA-EB} adduct [4]: 4.68
